Measurements reported in patent US4351337A, “Biodegradable, implantable drug delivery device, and process for preparing and using the same” (Arthur D. Little, Inc., priority 1980, dated 1982).
Entries after “also recorded” stand apart in the source; their conditions may differ.

Legend:
[1] = Naltrexone saturation in Earle's solution; format: physicochemical; conditions: Earle's Balanced Salt Solution, 37° C.; read-out: saturation concentration
Procedure: The resulting implants were evaluated by both in vitro and in vivo techniques. In making the in vitro evaluations the films were measured for weight, thickness, and surface area, and were then rinsed briefly with Earle's Balanced Salt Solution (IX--without phenol red, Grand Island Biological Company). Individual films were placed in stoppered test tubes containing 10 ml of the Earle's solution. The tubes were placed in a shaker water bath at 37° C. and were gently agitated. Drug concentration of the solution was periodically assayed by scintillation counting techniques to permit an evaluation of the in vitro drug-release behavior of the copolymers. (The solutions were replaced sufficiently frequently that the naltrexone concentration remained far below saturation, i.e., below ~460 mg/100 ml).

[2] = Tritium excretion in urine of rats given labelled prednisolone; format: in vivo, rat (female CD); conditions: for Tritium in urine of rats: group 3, control, s.c. injection 1.0 mg/rat
Procedure: These implants contained from 0.65 to 2.0 mg of radioactively-labelled prednisolone, depending on the size of the implant rectangle. The implants were sterilized by immersion in alcohol and then rinsed with sterile Earle's Balanced Salt Solution. The devices were implanted subcutaneously into the backs of two groups each of eight female CD rats (Charles River Breeding Laboratories, Inc.). To accomplish the implantations, the dorsal area was shaved, cleaned with alcohol and then a one-half inch incision was made in the skin. The skin was then separated from the muscle tissue and the implant inserted at this site. The incision was then sutured.
Each animal of a third group of four female CD rats from the same source was subcutaneously injected with 0.5 cc of an 0.5% hydroxy propylcellulose solution containing an amount of the same radioactiviely labelled prednisolone approximately equivalent to that contained in the implant devices (i.e., 1 mg prednisolone/rat).
All of the animals were housed in metabolic cages. The radioactivities in the urines collected were measured by the standard procedure of scintillation counting, and from these measurements values of disintegrations per minute (DPM) were calculated. Radioactivities were thus measured every 24 hours for the first four days and then for an additional 72 hour level to complete a week of testing.
The average DPM values obtained for the two groups of implanted rats (average dosage of 1.5 mg/rat) and the one group of control rats (average dosage of 1.0 mg/rat) are given in Table 1. During the first day a number of rats escaped from their cages so that the average figures given are for fewer than the total number of animals in each group.

| Compound | solubility [1] | Tritium in urine of rats ([2]; 0-24 h) | Tritium in urine of rats ([2]; 24-48 h) | Tritium in urine of rats ([2]; 48-72 h) | Tritium in urine of rats ([2]; 72-96 h) | Tritium in urine of rats ([2]; 96-168 h, minus values indicate noise) | excretion / drug release in words ([2]; implants to one week, control first 24 h and end of fourth day) |
| --- | --- | --- | --- | --- | --- | --- | --- |
| O=C1CC[C@@]2(O)[C@H]3Cc4ccc(O)c5c4[C@@]2(CCN3CC2CC2)[C@H]1O5 [naltrexone] | ~4600 µg/mL |  |  |  |  |  |  |
| C[C@]12C=CC(=O)C=C1CC[C@@H]1[C@@H]2[C@@H](O)C[C@@]2(C)[C@H]1CC[C@]2(O)C(=O)CO [prednisolone] |  | 33,038 DPM | 4,424 DPM | 3,335 DPM | 86 DPM | -248 DPM | very high excretion rates in the first 24 hours; also recorded: practically no excretion of radioactive material |
